Reference: EP4741380A1, “ISOXAZOLINE COMPOUND AND USE” (priority 2024, dated 2025)
Read-outs that look alike come from different tables or passages of the source.

Test system: mites
Test: Mite killing efficacy test with an in vitro model
Details: 30 µM drug solution
Procedure: Mite collection: Live mites were gently picked up from a cage box with cotton swabs or small tweezers, 17-26 live mites per group.
Drug treatment and detection method: 100 µL of a drug solution with a different concentration (drug solution prepared by 3% DMSO solution + 97% water and having a target final concentration of 30 µM) was aspirated with a pipette and added to a 24-well plate for each group, ensuring full contact between the drug and the mites. The mites were separately incubated at normal temperature for 5 min, transferred from each plate to another dry 24-well plate with the top sealed, and air-dried for about 1 h. Mite actions were observed, and the number of dead mites/the total number of mites was recorded. Then, the 24-well plate containing the mites was cultured at room temperature and relatively high humidity. The number of dead mites/the total number of mites was counted separately after 1 h, 2 h, 4 h, 6 h, 8 h, 22 h, and 24 h (time points after drug addition), and mite mortality rates were calculated. The project ended 24 h after drug addition.
At a corresponding time point, a mite mortality rate greater than or equal to 90% is denoted as "+++", a mite mortality rate less than 90% and greater than or equal to 50% is denoted as "++", and a mite mortality rate less than 50% is denoted as "+".

[1] = 4 h after drug addition, read-out: Mite Mortality Rate 4 h
[2] = 24 h after drug addition, read-out: Mite Mortality Rate 24 h

With `Cc1cc(C2=NOC(c3cc(Cl)cc(C(F)(F)F)c3)(C(F)(F)F)C2)ccc1C(=O)NCC(=O)NC1(C(F)(F)F)CC1` (racemic) [Example 007, 4-(5-(3-chloro-5-(trifluoromethyl)phenyl)-5-(trifluoromethyl)-4,5-dihydroisoxazol-3-yl)-2-methy 1-N-(2-oxo-2-((1-(trifluoromethyl)cyclopropyl)amino)ethyl)benzamide] as the compound, how does the “Mite Mortality Rate 4 h” value (4 h after drug addition) read?
The value was “++ (a mite mortality rate less than 90% and greater than or equal to 50% is denoted as "++")”.

What about the “Mite Mortality Rate 24 h” value (24 h after drug addition) of the same compound?
The value was “+++ (a mite mortality rate greater than or equal to 90% is denoted as "+++")”.

Which mortality at 30 µM [1] does the source give for `Cc1cc(C2=NOC(c3cc(Cl)c(F)c(Cl)c3)(C(F)(F)F)C2)ccc1C(=O)NCC(=O)NC1(C(F)(F)F)CC1` (stereo not shown) [Example 001, 4-(5-(3,5-dichloro-4-fluorophenyl)-5-(trifluoromethyl)-4,5-dihydroisoxazol-3-yl)-2-methyl-N-(2-oxo-2-((1-(trifluoromethyl)cyclopropyl)amino)ethyl)benzamide] here?
Its mortality at 30 µM is < 50%.

And the mortality at 30 µM [2]?
The mortality at 30 µM was > 90%.

With `Cc1cc(C2=NOC(c3cc(Cl)cc(Cl)c3)(C(F)(F)F)C2)ccc1C(=O)NCC(=O)NC1(C(F)(F)F)COC1` (stereo not shown) [Example 002, 4-(5-(3,5-dichlorophenyl)-5-(trifluoromethyl)-4,5-dihydroisoxazol-3-yl)-2-methyl-N-(2-oxo-2-((3-(trifluoromethyl)oxetan-3-yl)amino)ethyl)benzamide] as the compound, how does the mortality at 30 µM [1] read?
Its mortality at 30 µM is < 50%.

What about the mortality at 30 µM [2] of the same compound?
Its mortality at 30 µM is > 90%.

`Cc1cc(C2=NOC(c3cc(Cl)c(Cl)c(Cl)c3)(C(F)(F)F)C2)ccc1C(=O)NCC(=O)N1CC(F)(CF)C1` (stereo not shown) [Example 003, N-(2-(3-fluoro-3-(fluoromethyl)azetidin-1-yl)-2-oxoethyl)-2-methyl-4-(5-(3,4,5-trichlorophenyl) -5-(trifluoromethyl)-4,5-dihydroisoxazol-3-yl)benzamide] was tested. Which mortality at 30 µM [1] did it give?
The mortality at 30 µM was < 50%.

And the mortality at 30 µM [2]?
Its mortality at 30 µM is > 90%.

With `Cc1cc(C2=NOC(c3cc(Cl)c(Cl)c(Cl)c3)(C(F)(F)F)C2)ccc1C(=O)NCC(=O)NC1(C(F)(F)F)CC1` (stereo not shown) [Example 004, 2-methyl-N-(2-oxo-2-((1-(trifluoromethyl)cyclopropyl)amino)ethyl)-4-(5-(3,4,5-trichlorophenyl) -5-(trifluoromethyl)-4,5-dihydroisoxazol-3-yl)benzamide] as the compound, how does the mortality at 30 µM [1] read?
Its mortality at 30 µM is < 50%.

What about the mortality at 30 µM [2] of the same compound?
Its mortality at 30 µM is > 90%.

How did the mortality at 30 µM [1] turn out when `Cc1cc(C2=NOC(c3cc(Cl)c(F)c(Cl)c3)(C(F)(F)F)C2)ccc1C(=O)NCC(=O)N1CC(F)(CF)C1` (stereo not shown) [Example 005, 4-(5-(3,5-dichloro-4-fluorophenyl)-5-(trifluoromethyl)-4,5-dihydroisoxazol-3-yl)-N-(2-(3-fluoro-3-(fluoromethyl)azetidin-1-yl)-2-oxoethyl)-2-methylbenzamide] was run?
The mortality at 30 µM was 50 to 90%.

And the mortality at 30 µM [2]?
Its mortality at 30 µM is > 90%.

Which mortality at 30 µM [1] does the source give for `Cc1cc(C2=NOC(c3cc(Cl)cc(Cl)c3)(C(F)(F)F)C2)ccc1C(=O)NCC(=O)N1CCC1C(F)(F)F` (stereo not shown) [Example 006, 4-(5-(3,5-dichlorophenyl)-5-(trifluoromethyl)-4,5-dihydroisoxazol-3-yl)-2-methyl-N-(2-oxo-2-(2-(trifluoromethyl)azetidin-1-yl)ethyl)benzamide] here?
Its mortality at 30 µM is < 50%.

And the mortality at 30 µM [2]?
The mortality at 30 µM was > 90%.

How did the mortality at 30 µM [1] turn out when `Cc1cc(C2=NO[C@](c3cc(Cl)cc(C(F)(F)F)c3)(C(F)(F)F)C2)ccc1C(=O)NCC(=O)NC1(C(F)(F)F)CC1` [Example 009, (R)-4-(5-(3-chloro-5-(trifluoromethyl)phenyl)-5-(trifluoromethyl)-4,5-dihydroisoxazol-3-yl)-2-m ethyl-N-(2-oxo-2-((1-(trifluoromethyl)cyclopropyl)amino)ethyl)benzamide] was run?
Its mortality at 30 µM is < 50%.

What about the mortality at 30 µM [2] of the same compound?
Its mortality at 30 µM is < 50%.

Which results are given for `Cc1cc(C2=NOC(c3cc(Cl)cc(Cl)c3)(C(F)(F)F)C2)ccc1C(=O)NCC(=O)NC1(C(F)(F)F)CC1` (stereo not shown) [Example 010, 4-(5-(3,5-dichlorophenyl)-5-(trifluoromethyl)-4,5-dihydroisoxazol-3-yl)-2-methyl-N-(2-oxo-2-((1-(trifluoromethyl)cyclopropyl)amino)ethyl)benzamide]?
mortality at 30 µM [1]: 50 to 90%; mortality at 30 µM [2]: > 90%

For `Cc1cc(C2=NO[C@](c3cc(Cl)cc(Cl)c3)(C(F)(F)F)C2)ccc1C(=O)NCC(=O)NC1(C(F)(F)F)CC1` [Example 012, (R)-4-(5-(3,5-dichlorophenyl)-5-(trifluoromethyl)-4,5-dihydroisoxazol-3-yl)-2-methyl-N-(2-oxo-2-((1-(trifluoromethyl)cyclopropyl)amino)ethyl)benzamide], which mortality at 30 µM [1] is on record?
The mortality at 30 µM was < 50%.

What about the mortality at 30 µM [2] of the same compound?
The mortality at 30 µM was < 50%.

What does the source list for `Cc1cc(C2=NOC(c3cc(Cl)cc(C(F)(F)F)c3)(C(F)(F)F)C2)ccc1C(=O)NCC(=O)N1CC(F)(CF)C1` (stereo not shown) [Example 013, 4-(5-(3-chloro-5-(trifluoromethyl)phenyl)-5-(trifluoromethyl)-4,5-dihydroisoxazol-3-yl)-N-(2-(3-fluoro-3-(fluoromethyl)azetidin-1-yl)-2-oxoethyl)-2-methylbenzamide]?
mortality at 30 µM [1]: > 90%; mortality at 30 µM [2]: > 90%

What does the source list for `Cc1cc(C2=NOC(c3cc(Cl)cc(Cl)c3)(C(F)(F)F)C2)ccc1C(=O)NCC(=O)N1CC(O)(C(F)(F)F)C1` (stereo not shown) [Example 014, 4-(5-(3,5-dichlorophenyl)-5-(trifluoromethyl)-4,5-dihydroisoxazol-3-yl)-N-(2-(3-hydroxy-3-(trifluoromethyl)azetidin-1-yl)-2-oxoethyl)-2-methylbenzamide]?
mortality at 30 µM [1]: < 50%; mortality at 30 µM [2]: < 50%

How did the “Mite Mortality Rate 4 h” value (4 h after drug addition) turn out when `Cc1cc(C2=NOC(c3cc(Cl)cc(Cl)c3)(C(F)(F)F)C2)ccc1C(=O)NCC1(NCC(F)(F)F)COC1` (stereo not shown) [Example 015] was run?
Its value is “+ (a mite mortality rate less than 50% is denoted as "+")”.

What about the “Mite Mortality Rate 24 h” value (24 h after drug addition) of the same compound?
The value was “+ (a mite mortality rate less than 50% is denoted as "+")”.

`Cc1cc(C2=NOC(c3cc(Cl)cc(Cl)c3)(C(F)(F)F)C2)ccc1C(=O)NCC(=O)N1CCCC1C(F)(F)F` (stereo not shown) [Example 016, 4-(5-(3,5-dichlorophenyl)-5-(trifluoromethyl)-4,5-dihydroisoxazol-3-yl)-2-methyl-N-(2-oxo-2-(2-(trifluoromethyl)pyrrolidin-1-yl)ethyl)benzamide] was tested. Which mortality at 30 µM [1] did it give?
Its mortality at 30 µM is < 50%.

What about the mortality at 30 µM [2] of the same compound?
Its mortality at 30 µM is < 50%.

For `Cc1cc(C2=NOC(c3cc(Cl)cc(Cl)c3)(C(F)(F)F)C2)ccc1C(=O)NCC1(NCC(F)(F)F)CC1` (stereo not shown) [Example 017], which “Mite Mortality Rate 4 h” value (4 h after drug addition) is on record?
Its value is “+ (a mite mortality rate less than 50% is denoted as "+")”.

And the “Mite Mortality Rate 24 h” value (24 h after drug addition)?
The value was “++ (a mite mortality rate less than 90% and greater than or equal to 50% is denoted as "++")”.

`Cc1cc(C2=NOC(c3cc(Cl)cc(Cl)c3)(C(F)(F)F)C2)ccc1C(=O)NCC(=O)NCC1(C(F)(F)F)CC1` (stereo not shown) [Example 018] was tested. Which “Mite Mortality Rate 4 h” value (4 h after drug addition) did it give?
Its value is “+ (a mite mortality rate less than 50% is denoted as "+")”.

And the “Mite Mortality Rate 24 h” value (24 h after drug addition)?
The value was “++ (a mite mortality rate less than 90% and greater than or equal to 50% is denoted as "++")”.

For `Cc1cc(C2=NOC(c3cc(Cl)cc(Cl)c3F)(C(F)(F)F)C2)ccc1C(=O)NCC(=O)NC1(C(F)(F)F)CC1` (stereo not shown) [Example 019, 4-(5-(3,5-dichloro-2-fluorophenyl)-5-(trifluoromethyl)-4,5-dihydroisoxazol-3-yl)-2-methyl-N-(2-oxo-2-((1-(trifluoromethyl)cyclopropyl)amino)ethyl)benzamide], which mortality at 30 µM [1] is on record?
Its mortality at 30 µM is 50 to 90%.

What about the mortality at 30 µM [2] of the same compound?
Its mortality at 30 µM is > 90%.
